In patent publication US11230541B2, “Heterocyclic compound” (Takeda Pharmaceutical Company Limited, priority 2017, dated 2022):

Biological target: T1, NMDA receptor composed of four subunits including 2 sets of heterodimers of NR1 and NR2B (Homo sapiens, UniProt Q13224)
T1 construct: host or cells: HEK293 (tetracycline-induced expression)
Assay: NR2B Ca2+ influx assay (FLIPR, Fluo-4) in HEK293 cells expressing human GRIN1 and GRIN2B
Assay type: cell-based
Conditions: HEK293, 10 μM final compound concentration, glutamic acid/glycine-induced Ca2+ influx, read-out: inhibitory rate (10 μM compound concentration)
Outline: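 Inhibition rate was calculated from 5-min cumulative Fluo-4 signal (FLIPR, 3-s reads), using agonist-free buffer wells as 100% inhibition. Compound, 10 μM final, was applied 15 min before adding buffer with 30 μM glutamic acid and glycine to HEK293 cells with tetracycline-induced human NR1/NR2B, in HEPES pH 7.2 with 1.8 mM CaCl2.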

T1 sequence (Q13224 27-1484, other chains not shown): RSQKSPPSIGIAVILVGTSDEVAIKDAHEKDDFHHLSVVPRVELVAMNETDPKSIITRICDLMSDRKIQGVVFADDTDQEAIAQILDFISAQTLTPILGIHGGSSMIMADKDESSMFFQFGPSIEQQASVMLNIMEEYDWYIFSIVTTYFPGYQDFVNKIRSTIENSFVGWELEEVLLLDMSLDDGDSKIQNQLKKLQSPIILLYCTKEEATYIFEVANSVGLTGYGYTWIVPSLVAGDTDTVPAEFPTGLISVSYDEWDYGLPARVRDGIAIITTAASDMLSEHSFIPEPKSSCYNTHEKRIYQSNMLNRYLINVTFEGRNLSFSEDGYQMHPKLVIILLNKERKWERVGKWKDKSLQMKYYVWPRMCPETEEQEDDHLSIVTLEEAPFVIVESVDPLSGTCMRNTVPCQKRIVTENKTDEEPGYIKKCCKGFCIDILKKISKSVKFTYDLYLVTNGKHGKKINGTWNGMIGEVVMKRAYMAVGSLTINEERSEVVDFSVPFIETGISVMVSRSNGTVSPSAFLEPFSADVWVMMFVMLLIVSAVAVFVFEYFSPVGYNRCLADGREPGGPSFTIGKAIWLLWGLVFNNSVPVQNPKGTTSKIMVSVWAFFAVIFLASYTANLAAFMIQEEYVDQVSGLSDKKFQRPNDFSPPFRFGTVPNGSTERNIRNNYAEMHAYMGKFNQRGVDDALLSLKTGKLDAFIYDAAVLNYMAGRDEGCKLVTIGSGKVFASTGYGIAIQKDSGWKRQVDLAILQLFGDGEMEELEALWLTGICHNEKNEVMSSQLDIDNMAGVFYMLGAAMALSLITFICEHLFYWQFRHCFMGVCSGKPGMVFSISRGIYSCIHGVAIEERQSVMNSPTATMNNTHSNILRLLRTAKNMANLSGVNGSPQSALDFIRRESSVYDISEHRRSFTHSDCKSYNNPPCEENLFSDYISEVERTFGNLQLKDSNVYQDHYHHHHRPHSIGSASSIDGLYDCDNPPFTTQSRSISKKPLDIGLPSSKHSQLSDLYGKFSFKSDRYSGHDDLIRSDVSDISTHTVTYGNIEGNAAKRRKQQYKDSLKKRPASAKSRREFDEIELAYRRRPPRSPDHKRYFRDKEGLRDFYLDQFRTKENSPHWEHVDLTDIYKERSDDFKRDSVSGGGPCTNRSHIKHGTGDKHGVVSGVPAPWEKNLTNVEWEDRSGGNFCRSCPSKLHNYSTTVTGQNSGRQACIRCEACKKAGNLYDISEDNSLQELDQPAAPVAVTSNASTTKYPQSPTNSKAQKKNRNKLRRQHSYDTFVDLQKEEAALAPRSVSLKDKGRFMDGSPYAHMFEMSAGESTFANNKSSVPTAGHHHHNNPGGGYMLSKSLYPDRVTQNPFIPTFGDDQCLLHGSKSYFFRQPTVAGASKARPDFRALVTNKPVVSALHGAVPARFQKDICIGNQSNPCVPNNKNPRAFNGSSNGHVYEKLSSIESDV

| inhibition at 10 µM | Compound |
| --- | --- |
| 74% | O=C(NCc1cccc2[nH]ncc12)c1ccc(Cl)c(F)c1 [Example 187, 4-chloro-3-fluoro-N-(1H-indazol-4-ylmethyl)benzamide] |
| 52% | O=C(NCc1cccc2[nH]ncc12)c1cc(F)c(F)c(Cl)c1 [Example 188, 3-chloro-4,5-difluoro-N-(1H-indazol-4-ylmethyl)benzamide] |
| 67% | O=C(NCc1cccc2[nH]ncc12)c1cc(F)c(Cl)c(F)c1 [Example 189, 4-chloro-3,5-difluoro-N-(1H-indazol-4-ylmethyl)benzamide] |
| 86% | O=C(NCc1cccc2[nH]ncc12)c1ccc(C(F)F)c(Cl)c1 [Example 190, 3-chloro-4-(difluoromethyl)-N-(1H-indazol-4-ylmethyl)benzamide] |
| 94% | O=C(NCc1cccc2[nH]ncc12)c1cnc(OC(F)F)c(F)c1 [Example 191, 6-(difluoromethoxy)-5-fluoro-N-(1H-indazol-4-ylmethyl)nicotinamide] |
| 94% | O=C(NCc1cccc2[nH]ncc12)c1ccc(OC(F)F)c(F)c1 [Example 192, 4-(difluoromethoxy)-3-fluoro-N-(1H-indazol-4-ylmethyl)benzamide] |
| 86% | COc1ncc(C(=O)NCc2c(C)ccc3[nH]nnc23)cc1F [Example 193, 5-fluoro-6-methoxy-N-((5-methyl-1H-benzotriazol-4-yl)methyl)nicotinamide] |
| 97% | Cc1ccc2[nH]nnc2c1CNC(=O)c1ccc(OC(F)(F)F)cc1 [Example 194, N-((5-methyl-1H-benzotriazol-4-yl)methyl)-4-(trifluoromethoxy)-benzamide] |
| 91% | Cc1ccc2[nH]nnc2c1CNC(=O)c1cc(F)c(C(F)(F)F)c(F)c1 [Example 195, 3,5-difluoro-N-((5-methyl-1H-benzotriazol-4-yl)methyl)-4-(trifluoromethyl)-benzamide] |
| 78% | Cc1ccc2[nH]nnc2c1CNC(=O)c1cc(F)c(C)c(F)c1 [Example 196, 3,5-difluoro-4-methyl-N-((5-methyl-1H-benzotriazol-4-yl)methyl)benzamide] |
| 96% | COc1c(F)cc(C(=O)NCc2c(C)ccc3[nH]nnc23)cc1F [Example 197, 3,5-difluoro-4-methoxy-N-((5-methyl-1H-benzotriazol-4-yl)methyl)benzamide] |
| 90% | Cc1ccc2[nH]nnc2c1CNC(=O)c1cc(F)c(Cl)c(F)c1 [Example 198, 4-chloro-3,5-difluoro-N-((5-methyl-1H-benzotriazol-4-yl)methyl)benzamide] |
| 92% | Cc1ccc2[nH]nnc2c1CNC(=O)c1ccc(C(F)(F)F)c(F)c1 [Example 199, 3-fluoro-N-((5-methyl-1H-benzotriazol-4-yl)methyl)-4-(trifluoromethyl)-benzamide] |
| 85% | Cc1ccc(C(=O)NCc2c(C)ccc3[nH]nnc23)cc1F [Example 200, 3-fluoro-4-methyl-N-((5-methyl-1H-benzotriazol-4-yl)methyl)benzamide] |
| 92% | COc1ccc(C(=O)NCc2c(C)ccc3[nH]nnc23)cc1F [Example 201, 3-fluoro-4-methoxy-N-((5-methyl-1H-benzotriazol-4-yl)methyl)benzamide] |
| 83% | Cc1ccc2[nH]nnc2c1CNC(=O)c1cc(F)c(F)c(Cl)c1 [Example 202, 3-chloro-4,5-difluoro-N-((5-methyl-1H-benzotriazol-4-yl)methyl)benzamide] |
| 93% | O=C(NCc1c(C2CC2)ccc2[nH]nnc12)c1ccc(OC(F)(F)F)cc1 [Example 203, N-((5-cyclopropyl-1H-benzotriazol-4-yl)methyl)-4-(trifluoromethoxy)-benzamide] |
| 93% | COc1c(F)cc(C(=O)NCc2c(C3CC3)ccc3[nH]nnc23)cc1F [Example 204, N-((5-cyclopropyl-1H-benzotriazol-4-yl)methyl)-3,5-difluoro-4-methoxybenzamide] |
